Data on one molecule can be found in patent US20100004234A1, “SPECIFIC KINASE INHIBITORS” (Kosan Biosciences Incorporated, priority 2004, published 2010).

Assay [1] relates to panel of 120 kinases. Conditions: panel of some 120 kinases; cited from earlier work.
Assay [2] concerns P815 (Mouse mastocytoma, KIT D814Y). The experiment in a line: Cell proliferation assay (Cell Titer Glo). It counts as cell-based. The method, then:
(§1) In one illustrative method, cells are treated with various concentrations of the inhibitor in 96 well plates, incubated at 37° C./5% CO2 for three days, and analyzed using the Cell Titer Glo kit (Promega).
(In general: ATP-based viability assays read luminescence as a measure of living cells.)

Assay [3] deals with DU4475 (Human breast, B-Raf V599E). The experiment in a line: Cell proliferation assay (Cell Titer Glo). It counts as cell-based. Conditions: DU-4475; DU4475 (Human breast, B-Raf V599E); Tables 1 and 4; read-out: Kinase Inhibitor IC50. The method, then:
as §1

In assay [4] the test system is EOL-1 (Human leukemia FLP1L1-PDGFRA). Kind of assay: Cell proliferation assay (Cell Titer Glo). It counts as cell-based. Conditions: EOL1; EOL-1 (Human leukemia FLP1L1-PDGFRA); read-out: Kinase Inhibitor IC50. The method, then: as §1
Assay [5] relates to A375 (Human melanoma, B-Raf V599E). The experiment in a line: Cell proliferation assay (Cell Titer Glo). Conditions: A-375; A375 (Human melanoma, B-Raf V599E); Tables 1 and 4; read-out: Kinase Inhibitor IC50. It is filed as cell-based. The method, then: as §1
For assay [6], the system named is MV4-11 (Human leukemia Flt3-ITD). Kind of assay: Cell proliferation assay (Cell Titer Glo). It is filed as cell-based. The method, then:
as §1

Assay [7] concerns WM266-4 (Human melanoma, B-Raf V599D). The experiment in a line: Cell proliferation assay (Cell Titer Glo). It counts as cell-based. Conditions: WM 266-4; WM266-4 (Human melanoma, B-Raf V599D); Tables 1 and 4; read-out: Kinase Inhibitor IC50. The method, then: as §1
For assay [8], the system named is HT29 (Human colon, B-Raf V599E). The experiment in a line: Cell proliferation assay (Cell Titer Glo). It counts as cell-based. Conditions: HT-29; HT29 (Human colon, B-Raf V599E); Tables 1 and 4; read-out: Kinase Inhibitor IC50. The method, then:
as §1
(§2) COLO829 is a human melanoma cell line. HT29 is a human colon cancer cell line. Both cell lines have a V600E B-Raf mutation. SKOV3 is an ovarian cancer cell line having wild-type B-Raf. EKR2 (extra-cellular signal regulated kinase 2) is a kinase in the Ras/B-Raf MAP kinase cascade pathway.

Assay [9] concerns COLO829 (Human melanoma, B-Raf V599E). Kind of assay: Cell proliferation assay (Cell Titer Glo). It is filed as cell-based. Conditions: COLO-829. The method, then:
as §1, §2

Each structure is given as a SMILES string.

In general, IC50 refers to the concentration at which inhibition is half-maximal. The term GI50 denotes the concentration that inhibits growth by half. Turning to `CCN(CC)CCNC(=O)c1c(C)[nH]c(/C=C2\C(=O)Nc3ccc(F)cc32)c1C` [SU11248], the “number of kinases inhibited” value in [1] is recorded as approximately 79. In addition, the 50% inhibitory concentration (IC50) in assay [2] (P815 (Mouse mastocytoma, KIT D814Y), read-out: Kinase Inhibitor IC50) worked out at 0.32 µM; in [3], 4 µM; in [4] it was 0.0017 µM; in assay [5], 5.4 µM; in [6] (MV4-11 (Human leukemia Flt3-ITD), read-out: Kinase Inhibitor IC50) it was 0.01 µM; in assay [7] it was 8.2 µM. Besides, the IC50 in assay [8] worked out at 4.2 µM; in assay [9] (COLO829 (Human melanoma, B-Raf V599E), Tables 1 and 4, read-out: Kinase Inhibitor IC50), 7.1 µM. Besides, the 50% growth inhibitory concentration (GI50) in assay [2] (mouse mastocytoma cell line P815, constitutively active cKIT (D814Y), read-out: GI50) is 0.32 µM; in [6] (Homo sapiens, MV4-11, AML (FLT3 ITD) cell line MV-4-11, read-out: GI50), 0.012 µM; in assay [9] (Homo sapiens, melanoma cell line COLO829, read-out: GI50), 7.1 µM.
